From US11524940B1, “Inhibitors of cysteine proteases and methods of use thereof” (priority 2020, dated 2022)

Target: 229E Mpro (Human coronavirus 229E (HCoV-229E), UniProt P0C6X1)
Test: 229E Mpro activity
Assay type: biochemical
Conditions: read-out: 229E Mpro EC50
Method: Compounds are assayed using standard methods to assess compound activity and IC50. […] The assay buffer contains 20 mM of Tris-HCl (pH 7.3), 100 mM of NaCl, 1 mM of EDTA, 5mM of TCEP and 0.1% BSA.

229E Mpro, sequence (P0C6X1 2966-3267 limits assumed): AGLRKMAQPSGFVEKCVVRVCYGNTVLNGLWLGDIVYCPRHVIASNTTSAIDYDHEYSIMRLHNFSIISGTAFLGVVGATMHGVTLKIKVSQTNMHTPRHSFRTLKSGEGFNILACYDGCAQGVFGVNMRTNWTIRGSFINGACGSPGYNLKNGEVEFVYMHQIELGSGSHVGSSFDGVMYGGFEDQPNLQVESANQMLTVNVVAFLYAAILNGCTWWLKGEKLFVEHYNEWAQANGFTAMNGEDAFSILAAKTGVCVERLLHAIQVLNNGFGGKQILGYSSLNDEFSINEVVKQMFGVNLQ

Compound	EC50 [nM]
N#C[C@H](C[C@@H]1CCNC1=O)NC(=O)[C@H](CC1CC1)NC(=O)c1cc2c(OCCN3CCOCC3)cccc2[nH]1 [Compound 515, N-[(1S)-2-[[(1S)-1-cyano-2-[(3S)-2-oxopyrrolidin-3-yl]ethyl]amino]-1-(cyclopropylmethyl)-2-oxo-ethyl]-4-(2-morpholinoethoxy)-1H-indole-2-carboxamide]	< 2000
COc1cccc2[nH]c(C(=O)N[C@@H](CC(C)C)C(=O)NC(C#N)Cc3cc[nH]n3)cc12 (mixture of isomers) [Compound 241, N-[(1S)-1-[[1-cyano-2-(1H-pyrazol-3-yl)ethyl]carbamoyl]-3-methyl-butyl]-4-methoxy-1H-indole-2-carboxamide]	> 30000
COc1ccc2[nH]c(C(=O)N3CC4(CCCCC4)CC3C(=O)N[C@H](C#N)C[C@@H]3CCNC3=O)cc2c1Cl (single isomer, unassigned) [880 (Isomer 2)]	< 2000
N#C[C@H](C[C@@H]1CCCNC1=O)NC(=O)[C@H](CC1CC1)NC(=O)c1cc2cnccc2[nH]1 [Compound 625, N-((S)-1-(((S)-1-cyano-2-((S)-2-oxopiperidin-3-yl)ethyl)amino)-3-cyclopropyl-1-oxopropan-2-yl)-1H-pyrrolo[3,2-c]pyridine-2-carboxamide]	< 2000
CCNC(C#N)[C@H](C[C@@H]1CCNC1=O)NC(=O)[C@H](CC(C)C)NC(=O)c1cc2c(OC)cccc2[nH]1 (single isomer, unassigned) [511 (Isomer 2)]	< 2000
COc1cccc2[nH]c(C(=O)N3CC4(CCCCC4)CC3C(=O)N[C@H](C#N)C[C@@H]3CCNC3=O)cc12 (single isomer, unassigned) [389A (Isomer 1)]	< 2000
COc1ccc(Cl)c2[nH]c(C(=O)N[C@@H](CC(C)(C)C)C(=O)N[C@H](C#N)C[C@@H]3CCNC3=O)cc12 [Compound 892]	< 2000
COc1cccc2[nH]c(C(=O)N[C@@H](CC(C)C)C(=O)NC(C#N)CC3CC(=O)Nc4ccccc43)cc12 (mixture of isomers) [Compound 249, N-[(1S)-1-[[1-cyano-2-(2-oxo-3,4-dihydro-1H-quinolin-4-yl)ethyl]carbamoyl]-3-methyl-butyl]-4-methoxy-1H-indole-2-carboxamide]	> 30000
N#C[C@H](C[C@@H]1CCNC1=O)NC(=O)[C@@H]1C[C@@H](c2ccccc2)CN1C(=O)/C=C/c1ccc(Cl)cc1F [Compound 209, (2S,4S)-1-((E)-3-(4-chloro-2-fluorophenyl)acryloyl)-N-((S)-1-cyano-2-((S)-2-oxopyrrolidin-3-yl)ethyl)-4-phenylpyrrolidine-2-carboxamide]	2000 to 10000
CCNC(C#N)[C@H](C[C@@H]1CCNC1=O)NC(=O)[C@H](CC(C)C)NC(=O)c1cc2c(OC)cccc2[nH]1 (single isomer, unassigned) [511 (Isomer 1)]	< 2000
COc1ccc2[nH]c(C(=O)N3CC4(CCCCC4)CC3C(=O)N[C@H](C#N)C[C@@H]3CCNC3=O)cc2c1Cl (single isomer, unassigned) [880 (Isomer 1)]	10000 to 30000
COc1cccc2[nH]c(C(=O)N3C[C@H](c4ccccc4)C[C@H]3C(=O)N[C@H](C#N)C[C@@H]3CCCNC3=O)cc12 [Compound 611, (2S,4S)-N-[(1S)-1-cyano-2-[(3S)-2-oxo-3-piperidyl]ethyl]-1-(4-methoxy-1H-indole-2-carbonyl)-4-phenyl-pyrrolidine-2-carboxamide]	< 2000
COc1cccc2[nH]c(C(=O)N[C@@H](CC(C)C)C(=O)N[C@@H](C[C@@H]3CCNC3=O)C(C#N)NCC(=O)O)cc12 (single isomer, unassigned) [653 (Isomer 2)]	< 2000
COc1cccc2[nH]c(C(=O)N[C@@H](CC(C)(C)F)C(=O)N[C@H](C#N)C[C@@H]3CCCNC3=O)cc12 [Compound 667, N-[(1S)-1-[[(1S)-1-cyano-2-[(3S)-2-oxo-3-piperidyl]ethyl]carbamoyl]-3-fluoro-3-methyl-butyl]-4-methoxy-1H-indole-2-carboxamide]	< 2000
N#C[C@H](C[C@@H]1CCCNC1=O)NC(=O)[C@H](CC1CC1)NC(=O)c1ncc(Cl)[nH]1 [Compound 868]	< 2000
N#C[C@H](C[C@@H]1CCCNC1=O)NC(=O)[C@H](CC1CC1)NC(=O)c1cc(Cl)c(Cl)[nH]1 [Compound 866, 4,5-dichloro-N-[(1S)-2-[[(1S)-1-cyano-2-[(3S)-2-oxo-3-piperidyl]ethyl]amino]-1-(cyclopropylmethyl)-2-oxo-ethyl]-1H-pyrrole-2-carboxamide]	< 2000
N#C[C@]1(NC(=O)[C@H](CC2CC2)NC(=O)OCc2ccccc2)C[C@H]2CC[C@@H]1[C@H]1C(=O)NC(=O)[C@@H]21 (single isomer, unassigned) [495 (Isomer 1)]	> 30000
COc1cccc2[nH]c(C(=O)N[C@@H](CC3CC3)C(=O)N[C@](C)(C#N)CC3CCNC3=O)cc12 (single isomer, unassigned) [1055 (Isomer 1)]	> 30000
COc1cccc2[nH]c(C(=O)N[C@H](C(=O)N[C@H](C#N)C[C@@H]3CCNC3=O)[C@@H]3Cc4ccccc4O3)cc12 [Compound 147, N-((S)-2-(((S)-1-cyano-2-((S)-2-oxopyrrolidin-3-yl)ethyl)amino)-1-((S)-2,3-dihydrobenzofuran-2-yl)-2-oxoethyl)-4-methoxy-1H-indole-2-carboxamide]	> 30000

Compound	EC50 [nM]
N#C[C@H](C[C@@H]1CCNC1=O)NC(=O)[C@H](CC1CC1)NC(=O)c1cc2c(Cl)cccc2[nH]1 [Compound 647, 4-chloro-N-[(1S)-2-[[(1S)-1-cyano-2-[(3S)-2-oxopyrrolidin-3-yl]ethyl]amino]-1-(cyclopropylmethyl)-2-oxo-ethyl]-1H-indole-2-carboxamide]	< 2000
CC(C)(C)OC(=O)Nc1cccn([C@H](CC2CC2)C(=O)N[C@H](C#N)C[C@@H]2CCNC2=O)c1=O (single isomer, unassigned) [505 (Isomer 1)]	> 30000
COc1cccc2[nH]c(C(=O)N[C@@H](CC(C)C)C(=O)N[C@@H](CC3CCNC3=O)C(C#N)NCc3ccccc3)cc12 (single isomer, unassigned) [507 (Isomer 2.1)]	< 2000
COc1cccc2[nH]c(C(=O)N3CCC4(CC4)C[C@H]3C(=O)N[C@H](C#N)C[C@@H]3CCNC3=O)cc12 [Compound 183, (S)-N-((S)-1-cyano-2-((S)-2-oxopyrrolidin-3-yl)ethyl)-6-(4-methoxy-1H-indole-2-carbonyl)-6-azaspiro[2.5]octane-5-carboxamide]	2000 to 10000
N#C[C@H](C[C@@H]1CCCNC1=O)NC(=O)[C@H](CC1CC1)NC(=O)c1cc2ccc(F)c(Br)c2[nH]1 [Compound 850]	10000 to 30000
COc1cccc2[nH]c(C(=O)N3C[C@H](c4ccccc4)C[C@H]3C(=O)N[C@@H](C[C@@H]3CCNC3=O)C(O)C#N)cc12 (single isomer, unassigned) [345 (Isomer 2)]	< 2000
COc1cccc2[nH]c(C(=O)N[C@@H](CC(C)C)C(=O)N[C@@H](C[C@@H]3CCNC3=O)C(C#N)NC(C)(C)C)cc12 (single isomer, unassigned) [323 (Isomer 2)]	< 2000
COc1cccc2[nH]c(C(=O)N3C[C@H](c4ccccc4)C[C@H]3C(=O)N[C@@H](C[C@@H]3CCNC3=O)C(O)C#N)cc12 (single isomer, unassigned) [345 (Isomer 1)]	< 2000
N#C[C@H](C[C@@H]1CCCNC1=O)NC(=O)[C@H](CC1CC1)NC(=O)c1cc2c(C(F)(F)F)cccc2[nH]1 [Compound 856, N-((S)-1-(((S)-1-cyano-2-((S)-2-oxopiperidin-3-yl)ethyl)amino)-3-cyclopropyl-1-oxopropan-2-yl)-4-(trifluoromethyl)-1H-indole-2-carboxamide]	< 2000
COc1cccc2[nH]c(C(=O)N[C@@H](CC3CC3)C(=O)N[C@@H](C#N)C[C@@H]3CCCNC3=O)cc12 (single isomer, unassigned) [491 (Isomer 2)]	> 30000
COc1cccc2[nH]c(C(=O)N3C[C@H](SC)C[C@H]3C(=O)N[C@H](C#N)C[C@@H]3CCNC3=O)cc12 [Compound 551, (2S,4R)-N-[(1S)-1-cyano-2-[(3S)-2-oxopyrrolidin-3-yl]ethyl]-1-(4-methoxy-1H-indole-2-carbonyl)-4-methylsulfanyl-pyrrolidine-2-carboxamide]	< 2000
COc1cccc2[nH]c(C(=O)N[C@@H](CC(C)C)C(=O)N[C@@H](C[C@@H]3CCNC3=O)C(C#N)NCC(=O)O)cc12 (single isomer, unassigned) [653 (Isomer 1)]	< 2000
COc1cc(Cl)c2[nH]c(C(=O)N[C@@H](CC3CC3)C(=O)N[C@H](C#N)C[C@@H]3CCNC3=O)cc2c1 [Compound 695, 7-chloro-N-[(1S)-2-[[(1S)-1-cyano-2-[(3S)-2-oxopyrrolidin-3-yl]ethyl]amino]-1-(cyclopropylmethyl)-2-oxo-ethyl]-5-methoxy-1H-indole-2-carboxamide]	< 2000
N#C[C@H](C[C@@H]1CCCNC1=O)NC(=O)[C@H](CC1CC1)NC(=O)c1cc2cc(F)cc(Cl)c2[nH]1 [Compound 830, 7-chloro-N-((S)-1-(((S)-1-cyano-2-((S)-2-oxopiperidin-3-yl)ethyl)amino)-3-cyclopropyl-1-oxopropan-2-yl)-5-fluoro-1H-indole-2-carboxamide]	< 2000
CC(C)C[C@H](NC(=O)CC(C)(O)c1ccc(Cl)cc1)C(=O)N[C@H](C#N)C[C@@H]1CCNC1=O (single isomer, unassigned) [365 (Isomer 2)]	2000 to 10000
COc1cccc2[nH]c(C(=O)N[C@@H](CC(C)C)C(=O)N[C@@H](C[C@@H]3CCNC3=O)C(C#N)Nc3ccccc3)cc12 (stereo partly drawn) [Compound 327, N-[(1S)-1-[[(1S)-2-anilino-2-cyano-1-[[(3S)-2-oxopyrrolidin-3-yl]methyl]ethyl]carbamoyl]-3-methyl-butyl]-4-methoxy-1H-indole-2-carboxamide]	< 2000
COc1cc(Cl)c2[nH]c(C(=O)N[C@@H](CC3CC3)C(=O)N[C@H](C#N)C[C@@H]3CCCNC3=O)cc2c1 [Compound 900, 7-chloro-N-((S)-1-(((S)-1-cyano-2-((S)-2-oxopiperidin-3-yl)ethyl)amino)-3-cyclopropyl-1-oxopropan-2-yl)-5-methoxy-1H-indole-2-carboxamide]	< 2000
CC(C)(C)C[C@H](NC(=O)c1cc2c(F)cccc2[nH]1)C(=O)N[C@H](C#N)C[C@@H]1CCCNC1=O [Compound 816]	> 30000
